Measured values as given in patent US20150259300A1, “4-(ORTHO)-FLUOROPHENYL-5-FLUOROPYRIMIDIN-2-YL AMINES CONTAINING A SULFONE GROUP” (BAYER PHARMA AKTIENGESELLSCHAFT, priority 2012, published 2015).

Assays:
[1] = biological target: T1, CDK9/CycT1 (Homo sapiens, UniProt P50750); assay: CDK9/CycT1 high ATP kinase assay (TR-FRET, Method 1b); format: biochemical; settings: 2 mM ATP
T1 construct: Recombinant full-length His-tagged human CDK9 and CycT1; His; purchased Invitrogen PV4131; host or cells: insect cells
T1 sequence (P50750 whole entry): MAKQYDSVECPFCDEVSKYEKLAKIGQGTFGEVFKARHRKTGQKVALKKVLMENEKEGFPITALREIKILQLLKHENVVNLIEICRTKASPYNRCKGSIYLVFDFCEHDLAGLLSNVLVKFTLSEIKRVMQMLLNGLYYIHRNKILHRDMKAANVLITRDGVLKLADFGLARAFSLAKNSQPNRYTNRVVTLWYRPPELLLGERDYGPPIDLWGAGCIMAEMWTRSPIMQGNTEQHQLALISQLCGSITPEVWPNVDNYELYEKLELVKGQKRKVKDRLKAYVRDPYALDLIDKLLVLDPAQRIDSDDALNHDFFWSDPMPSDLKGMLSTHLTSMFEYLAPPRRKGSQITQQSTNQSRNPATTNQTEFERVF
T1 sequence (O60563 whole entry partner): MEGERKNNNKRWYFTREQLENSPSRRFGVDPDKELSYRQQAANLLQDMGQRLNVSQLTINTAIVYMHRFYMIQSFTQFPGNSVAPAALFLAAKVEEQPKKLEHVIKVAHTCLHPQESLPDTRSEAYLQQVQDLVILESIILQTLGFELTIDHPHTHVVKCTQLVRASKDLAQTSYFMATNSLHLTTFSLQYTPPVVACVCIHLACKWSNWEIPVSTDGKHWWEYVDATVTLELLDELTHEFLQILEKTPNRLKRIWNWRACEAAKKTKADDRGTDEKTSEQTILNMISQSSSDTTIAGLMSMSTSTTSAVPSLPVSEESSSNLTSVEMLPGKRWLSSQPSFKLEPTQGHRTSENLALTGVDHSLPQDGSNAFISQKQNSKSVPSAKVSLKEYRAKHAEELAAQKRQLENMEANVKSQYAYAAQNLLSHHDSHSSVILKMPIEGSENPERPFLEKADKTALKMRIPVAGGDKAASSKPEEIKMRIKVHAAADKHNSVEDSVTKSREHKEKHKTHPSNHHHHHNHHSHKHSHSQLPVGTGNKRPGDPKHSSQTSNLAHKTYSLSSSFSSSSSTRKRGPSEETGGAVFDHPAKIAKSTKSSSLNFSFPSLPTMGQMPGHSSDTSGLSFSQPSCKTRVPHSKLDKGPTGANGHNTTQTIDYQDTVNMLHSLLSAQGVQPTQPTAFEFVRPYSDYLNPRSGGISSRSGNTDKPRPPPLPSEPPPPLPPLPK
Experimental: 1b. CDK9/CyeT1 High ATP Kinase Assay
CDK9/CycT1-inhibitory activity of compounds of the present invention at a high ATP concentration after preincubation of enzyme and test compounds was quantified employing the CDK9/CycT1 TR-FRET assay as described in the following paragraphs.
Recombinant full-length His-tagged human CDK9 and CycT1, expressed in insect cells and purified by Ni-NTA affinity chromatography, were purchase from Invitrogen (Cat. No PV4131). As substrate for the kinase reaction biotinylated peptide biotin-Ttds-YISPLKSPYKISEG (C-terminus in amid form) was used which can be purchased e.g. form the company JERINI peptide technologies (Berlin, Germany).
For the assay 50 nl of a 100 fold concentrated solution of the test compound in DMSO was pipetted into a black low volume 384 well microtiter plate (Greiner Bio-One, Frickenhausen, Germany), 2 μl of a solution of CDK9/CycT1 in aqueous assay buffer [50 mM Tris/HCl pH 8.0, 10 mM MgCl2, 1.0 mM dithiothreitol, 0.1 mM sodium ortho-vanadate, 0.01% (v/v) Nonidet-P40 (Sigma)] were added and the mixture was incubated for […] at 22° C. to allow pre-binding of the test compounds to the enzyme before the start of the kinase reaction. Then the kinase reaction was started by the addition of 3 μl of a solution of adenosine-tri-phosphate (ATP, 3.3 mM=>final conc. in the 5 μl assay volume is 2 mM) and substrate (1.67 μM=>final conc. in the 5 μl assay volume is 1 μM) in assay buffer and the resulting mixture was incubated for a reaction time of […] at 22° C. The concentration of CDK9/CycT1 was adjusted depending of the activity of the enzyme lot and was chosen appropriate to have the assay in the linear range, typical concentrations were in the range of 0.5 ng/ml. The reaction was stopped by the addition of 5 μl of a solution of TR-FRET detection reagents ([…] streptavidine-XL665 [Cisbio Bioassays, Codolet, France] and 1 nM anti-RB(pSer807/pSer811)-antibody from BD Pharmingen [#558389] and 1.2 nM LANCE EU-W1024 labeled anti-mouse IgG antibody [Perkin-Elmer, product no. AD0077]) in an aqueous EDTA-solution (100 mM EDTA, 0.2% (w/v) bovine serum albumin in 100 mM HEPES/NaOH pH 7.0).
The resulting mixture was incubated 1 h at 22° C. to allow the formation of complex between the phosphorylated biotinylated peptide and the detection reagents. Subsequently the amount of phosphorylated substrate was evaluated by measurement of the resonance energy transfer from the Eu-chelate to the streptavidine-XL. Therefore, the fluorescence emissions at 620 nm and 665 nm after excitation at 350 nm was measured in a HTRF reader, e.g. a Rubystar (BMG Labtechnologies, Offenburg, Germany) or a Viewlux (Perkin-Elmer). The ratio of the emissions at 665 nm and at […] was taken as the measure for the amount of phosphorylated substrate. The data were normalised (enzyme reaction without inhibitor=0% inhibition, all other assay components but no enzyme=100% inhibition).

[2] = test system: HeLa cells; assay: Proliferation assay (crystal violet), HeLa; format: cell-based; settings: Homo sapiens, 96 h, 4 days, read-out: Inhibition of HeLa cell proliferation IC50
Experimental: (§1) Cultivated tumour cells (HeLa, human cervical tumour cells, ATCC CCL-2; NCI-H460, human non-small cell lung carcinoma cells, ATCC HTB-177; A2780, human ovarian carcinoma cells, ECACC #93112519; DU 145, hormone-independent human prostate carcinoma cells, ATCC HTB-81; HeLa-MaTu-ADR, multidrug-resistant human cervical carcinoma cells, EPO-GmbH Berlin; Caco-2, human colorectal carcinoma cells, ATCC HTB-37; B 16F10, mouse melanoma cells, ATCC CRL-6475) were plated at a density of 5,000 cells/well (DU145, HeLa-MaTu-ADR), 3,000 cells/well (NCI-H460, HeLa), 2,500 cells/well (A2780), 1,500 cells/well (Caco-2), or 1,000 cells/well (B16F10) in a 96-well multititer plate in 200 μL of their respective growth medium supplemented 10% fetal calf serum. After 24 hours, the cells of one plate (zero-point plate) were stained with crystal violet (see below), while the medium of the other plates was replaced by fresh culture medium (200 to which the test substances were added in various concentrations (0 μM, as well as in the range of 0.001-10 μM; the final concentration of the solvent dimethyl sulfoxide was 0.5%). The cells were incubated for 4 days in the presence of test substances. Cell proliferation was determined by staining the cells with crystal violet: the cells were fixed by adding 20 μl/measuring point of an 11% glutaric aldehyde solution for 15 minutes at room temperature. After three washing cycles of the fixed cells with water, the plates were dried at room temperature. The cells were stained by adding 100 μl/measuring point of a 0.1% crystal violet solution (pH 3.0). After three washing cycles of the stained cells with water, the plates were dried at room temperature. The dye was dissolved by adding 100 μl/measuring point of a 10% acetic acid solution. The extinction was determined by photometry at a wavelength of 595 nm. The change of cell number, in percent, was calculated by normalization of the measured values to the extinction values of the zero-point plate (=0%) and the extinction of the untreated (0 μm) cells (=100%). The IC50 values (inhibitory concentration at 50% of maximal effect) were determined by means of a 4 parameter fit.

[3] = test system: HeLa-MaTu-ADR cells; assay: Proliferation assay (crystal violet), HeLa-MaTu-ADR; format: cell-based; settings: Homo sapiens, 96 h, 4 days, read-out: Inhibition of HeLa-MaTu-ADR cell proliferation IC50
Experimental: as §1, with “After three washing cycles of the fixed cells with water, the plates were dried at room temperature. The cells were stained by adding 100 μl/measuring point of a 0.1% crystal violet solution (pH 3.0). After three washing cycles of the stained cells with water, the plates were dried at room temperature. The dye was dissolved by adding 100 μl/measuring point of a 10% acetic acid solution. The extinction was determined by photometry at a wavelength of 595 nm. The change of cell number, in percent, was calculated by normalization of the measured values to the extinction values of the zero-point plate (=0%) and the extinction of the untreated (0 μm) cells (=100%). The IC50 values (inhibitory concentration at 50% of maximal effect) were determined by means of a 4 parameter fit.” left out

[4] = test system: NCI-H460 cells; assay: Proliferation assay (crystal violet), NCI-H460; format: cell-based; settings: Homo sapiens, 96 h; NCI-H460, 4 days; read-out: Inhibition of H460 cell proliferation IC50
Experimental: as §1, with “After three washing cycles of the fixed cells with water, the plates were dried at room temperature. The cells were stained by adding 100 μl/measuring point of a 0.1% crystal violet solution (pH 3.0). After three washing cycles of the stained cells with water, the plates were dried at room temperature. The dye was dissolved by adding 100 μl/measuring point of a 10% acetic acid solution. The extinction was determined by photometry at a wavelength of 595 nm. The change of cell number, in percent, was calculated by normalization of the measured values to the extinction values of the zero-point plate (=0%) and the extinction of the untreated (0 μm) cells (=100%). The IC50 values (inhibitory concentration at 50% of maximal effect) were determined by means of a 4 parameter fit.” left out

[5] = test system: DU145 cells; assay: Proliferation assay (crystal violet), DU145; format: cell-based; settings: Homo sapiens, DU-145, 96 h; DU145, 4 days; read-out: Inhibition of DU145 cell proliferation IC50
Experimental: as §1, with “After three washing cycles of the fixed cells with water, the plates were dried at room temperature. The cells were stained by adding 100 μl/measuring point of a 0.1% crystal violet solution (pH 3.0). After three washing cycles of the stained cells with water, the plates were dried at room temperature. The dye was dissolved by adding 100 μl/measuring point of a 10% acetic acid solution. The extinction was determined by photometry at a wavelength of 595 nm. The change of cell number, in percent, was calculated by normalization of the measured values to the extinction values of the zero-point plate (=0%) and the extinction of the untreated (0 μm) cells (=100%). The IC50 values (inhibitory concentration at 50% of maximal effect) were determined by means of a 4 parameter fit.” left out

[6] = test system: Caco-2 cells; assay: Proliferation assay (crystal violet), Caco-2; format: cell-based; settings: Homo sapiens, 96 h; Caco-2, 4 days; read-out: Inhibition of Caco-2 cell proliferation IC50
Experimental: as §1, with “After three washing cycles of the fixed cells with water, the plates were dried at room temperature. The cells were stained by adding 100 μl/measuring point of a 0.1% crystal violet solution (pH 3.0). After three washing cycles of the stained cells with water, the plates were dried at room temperature. The dye was dissolved by adding 100 μl/measuring point of a 10% acetic acid solution. The extinction was determined by photometry at a wavelength of 595 nm. The change of cell number, in percent, was calculated by normalization of the measured values to the extinction values of the zero-point plate (=0%) and the extinction of the untreated (0 μm) cells (=100%). The IC50 values (inhibitory concentration at 50% of maximal effect) were determined by means of a 4 parameter fit.” left out

[7] = test system: B16F10 cells; assay: Proliferation assay (crystal violet), B16F10; format: cell-based; settings: Mus musculus, B16-F10, 96 h; B16F10, 4 days; read-out: Inhibition of B16F10 cell proliferation IC50
Experimental: as §1, with “After three washing cycles of the fixed cells with water, the plates were dried at room temperature. The cells were stained by adding 100 μl/measuring point of a 0.1% crystal violet solution (pH 3.0). After three washing cycles of the stained cells with water, the plates were dried at room temperature. The dye was dissolved by adding 100 μl/measuring point of a 10% acetic acid solution. The extinction was determined by photometry at a wavelength of 595 nm. The change of cell number, in percent, was calculated by normalization of the measured values to the extinction values of the zero-point plate (=0%) and the extinction of the untreated (0 μm) cells (=100%). The IC50 values (inhibitory concentration at 50% of maximal effect) were determined by means of a 4 parameter fit.” left out

Row | Structure (SMILES) | IC50 [1] [µM] | IC50 [2] [µM] | also measured
1 | COCCS(=O)(=O)Cc1cccc(Nc2ncc(F)c(-c3ccc(F)cc3F)n2)c1 [Example 4, 4-(2,4-Difluorophenyl)-5-fluoro-N-(3-{[(2-methoxyethyl)sulfonyl]methyl}phenyl)pyrimidin-2-amine] | 2.26 | – | –
2 | CS(=O)(=O)Cc1cccc(Nc2ncc(F)c(-c3ccc(F)cc3F)n2)c1 [Example 5, 4-(2,4-Difluorophenyl)-5-fluoro-N-{3-[(methylsulfonyl)methyl]phenyl}pyrimidin-2-amine] | 0.858 | – | –
3 | CCCS(=O)(=O)Cc1cccc(Nc2ncc(F)c(-c3ccc(F)cc3F)n2)c1 [Example 8, 4-(2,4-difluorophenyl)-5-fluoro-N-{3-[(propylsulfonyl)methyl]phenyl}pyrimidin-2-amine] | 0.904 | 3 | –
4 | CS(=O)(=O)Cc1cc(F)cc(Nc2ncc(F)c(-c3ccc(F)cc3F)n2)c1 [Example 10, 4-(2,4-Difluorophenyl)-5-fluoro-N-{3-fluoro-5-[(methylsulfonyl)methyl]phenyl}pyrimidin-2-amine] | 2.28 | 3 | –
5 | CS(=O)(=O)Cc1cc(F)cc(Nc2ncc(F)c(-c3cc(F)c(F)cc3F)n2)c1 [Example 11, 5-Fluoro-N-{3-fluoro-5-[(methylsulfonyl)methyl]phenyl}-4-(2,4,5-trifluorophenyl)pyrimidin-2-amine] | > 20 | 2.96 | –
6 | CS(=O)(=O)Cc1cc(F)cc(Nc2ncc(F)c(-c3ccc(F)c(F)c3F)n2)c1 [Example 12, 5-fluoro-N-{3-fluoro-5-[(methylsulfonyl)methyl]phenyl}-4-(2,3,4-trifluorophenyl)pyrimidin-2-amine] | 0.271 | 1 | –

The remaining compounds from weak to strong by IC50 [1], led by results:

Row | IC50 [1] [µM] | IC50 [2] [µM] | Structure (SMILES) | also measured
7 | 14.5 | 3 | CC(C)(C)S(=O)(=O)Cc1cccc(Nc2ncc(F)c(-c3ccc(F)cc3F)n2)c1 [Example 3, N-{3-[(tert-Butylsulfonyl)methyl]phenyl}-4-(2,4-difluorophenyl)-5-fluoropyrimidin-2-amine] | –
8 | 2.28 | 3 | CCCS(=O)(=O)Cc1cc(F)cc(Nc2ncc(F)c(-c3ccc(F)cc3F)n2)c1 [Example 13, 4-(2,4-Difluorophenyl)-5-fluoro-N-{3-fluoro-5-[(propylsulfonyl)methyl]phenyl}pyrimidin-2-amine] | –
9 | 2.26 | 3 | CC(C)S(=O)(=O)Cc1cccc(Nc2ncc(F)c(-c3ccc(F)cc3F)n2)c1 [Example 2, 4-(2,4-Difluorophenyl)-5-fluoro-N-{3-[(propan-2-ylsulfonyl)methyl]phenyl}pyrimidin-2-amine] | –
10 | 0.33 | 3 | O=S(=O)(Cc1cccc(Nc2ncc(F)c(-c3ccc(F)cc3F)n2)c1)C1CC1 [Example 9, N-{3-[(Cyclopropylsulfonyl)methyl]phenyl}-4-(2,4-difluorophenyl)-5-fluoropyrimidin-2-amine] | –
11 | 0.099 | 0.617 | CS(=O)(=O)Cc1cc(Nc2ncc(F)c(-c3ccc(F)cc3F)n2)cc(S(F)(F)(F)(F)F)c1 [Example 6, 4-(2,4-Difluorophenyl)-5-fluoro-N-{3-[(methylsulfonyl)methyl]-5-(pentafluoro-λ^6-sulfanyl)phenyl}pyrimidin-2-amine] | IC50 [3]: 0.22 µM; IC50 [4]: 0.386 µM; IC50 [5]: 0.352 µM; IC50 [6]: 0.382 µM; IC50 [7]: 0.951 µM
